In patent US11932657B2, “Heterocyclic compound” (priority 2018, dated 2024):

Experiments:
[1] = tested on: immortalized megakaryocyte line (SeV2-MKCL); test: Platelet production: static culturing of immortalized megakaryocyte line; type: cell-based; conditions: compound final concentration 0.1 μM, static culturing 6 to 7 days, control (DMSO) set to 1; platelets = CD41, CD42b and CD42a-positive cells
Experimental: Test Example 2 (Platelet Production: Static Culturing)
The immortalized megakaryocyte line (SeV2-MKCL) obtained according to the method described in WO 2016/204256 was washed twice with D-PBS(−) and then cultured in medium not containing doxycycline to terminate forced expression. Culturing was implemented by seeding the cells at 1 mL/well in a 24-well plate (#662160 (Greiner Rio-One)) at a seeding density of 1×10^5 cells/mL followed by static culturing in the medium indicated below.
The medium was obtained by adding the following components to IMDM serving as the basal medium (concentrations indicate final concentrations).
Culturing was implemented under conditions of 37° C. and 5% CO2. At the same time, the compound of the present invention (final concentration 0.1 μM) or DMSO (control) was added and cultured for 6 to 7 days. Thereafter, the number of platelets (CD41, CD42b, and CD42a-positive cells) was measured. The measurement method was as shown below. The same procedure was performed with the control.
A portion of the culture supernatant was harvested 6 to 7 days after culturing to terminate gene expression, and suspended with the following antibodies to stain them. eFluor 450-labeled anti-CD42a antibody (#48-0428-42 (eBioscience)) PE-labeled anti-CD42b antibody (#303906 (BioLegend)) APC-labeled anti-CD41 antibody (#303710 (BioLegend)) The number of platelets was counted using FACSVerse manufactured by BD 30 minutes after the stain reaction. In the measurement of the number of platelets, the number of cells was corrected using Flow-count beads (#7547053 (Beckman Coulter)).
The number of platelets produced from one megakaryocyte cell was calculated based on the number of platelets in the sample obtained by the FACS measurement, and the result was defined as platelet production efficiency (PLT/MK) and used for evaluation of drug efficacy of the compound. In addition, the specific activity at the time when the platelet production efficiency of the control was set to 1 was indicated as fold increase.

[2] = biological target: T1, aryl hydrocarbon receptor (AhR) (Homo sapiens, UniProt P35869); test: AhR reporter gene assay (aryl hydrocarbon receptor antagonist activity, DRE-Luc HepG2 cells, TCDD-stimulated luciferase); type: cell-based
T1 construct: DRE-Luc HepG2 cells subcultured in a 225 cm^2 flask; endogenous in cells; host or cells: HepG2 (ATCC), stably transfected with the reporter hCYP1A1/pGL4.27 (DRE-Luc HepG2)
T1 sequence (P35869 11-848): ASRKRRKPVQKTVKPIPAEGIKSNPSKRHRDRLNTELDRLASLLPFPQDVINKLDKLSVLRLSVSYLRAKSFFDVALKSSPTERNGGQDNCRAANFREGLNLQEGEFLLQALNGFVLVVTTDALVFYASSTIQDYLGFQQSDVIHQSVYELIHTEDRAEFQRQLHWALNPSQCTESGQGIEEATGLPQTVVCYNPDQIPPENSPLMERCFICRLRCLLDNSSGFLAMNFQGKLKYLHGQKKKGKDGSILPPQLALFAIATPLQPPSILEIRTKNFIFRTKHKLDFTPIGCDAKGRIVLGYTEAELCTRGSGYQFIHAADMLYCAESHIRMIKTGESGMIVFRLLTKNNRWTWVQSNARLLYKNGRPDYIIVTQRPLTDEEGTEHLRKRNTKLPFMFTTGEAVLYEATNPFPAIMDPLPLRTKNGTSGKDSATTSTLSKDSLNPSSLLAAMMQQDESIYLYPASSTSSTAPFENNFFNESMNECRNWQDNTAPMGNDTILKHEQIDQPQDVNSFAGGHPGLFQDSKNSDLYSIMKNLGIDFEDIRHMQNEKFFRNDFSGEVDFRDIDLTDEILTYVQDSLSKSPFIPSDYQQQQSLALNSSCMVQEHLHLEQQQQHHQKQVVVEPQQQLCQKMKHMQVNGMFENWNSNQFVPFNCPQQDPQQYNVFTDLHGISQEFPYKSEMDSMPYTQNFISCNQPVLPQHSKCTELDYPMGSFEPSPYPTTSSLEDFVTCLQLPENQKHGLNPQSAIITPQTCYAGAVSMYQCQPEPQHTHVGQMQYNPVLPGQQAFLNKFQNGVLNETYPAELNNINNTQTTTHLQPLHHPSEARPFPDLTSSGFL
Experimental: Test Example 1 (Aryl Hydrocarbon Receptor Antagonist Activity)
An expression vector, hCYP1A1/pGL4.27 was introduced into HepG2 cells (derived from American Type Culture Collection (ATCC)) that were seeded in 6-well plates (#3810-006 (Iwaki)) at 1.2×10^6 cells/well, using Lipofectamine 3000 (#100022050 (Invitrogen)). Referring to Garrion P M et al., Fundam Appl Toxicol, 30, 194 (1996), the vector hCYP1A1/pGL4.27 incorporated the human CYP1A1 promotor region including dioxin responsive element (DRE) region of the AhR binding region into the XhoI-BglII restriction enzyme site of pGL4.27 (#E8451 (Promega)). After 24 hours, medium-1 was replaced, and after 48 hours, the medium-1 containing hygromycin B (200 to 1000 μg/mL) was subjected to drug treatment. Culturing using the medium containing hygromycin B was continued for about 1 month to clone 24 clones showing drug resistance. A cell line showing high reporter activity was selected (DRE-Luc HepG2) from drug resistant lines using as an indicator luciferase activity (Dual-Glo Luciferase substrate, #E297A (Promega)) relative to an AhR agonist, 2,3,7,8-tetrachlorodibenzo-p-dioxin (TCDD) (#ED-901-B (CIL.)).
DRE-Luc HepG2 cells subcultured in a 225 cm^2 flask (#11-0005 (Iwaki)) were washed with PBS (#1419-144 (Gibco), Lot: 1896207), and thereto was added 8 mL of Trypsin-EDTA (0.05%) (#25300-054 (Gibco)). Thereafter, an excessive liquid was removed from the mixture, and the cells were stood at room temperature for 5 minutes. Thereto was added 10 mL of medium-2, the cells were recovered through a cell strainer (#352350 (Falcon), 70 μm), and the number of cells were then counted using a hemocytometer. A cell suspension was prepared at 3×10^5 cells/mL, 100 μL/well of the cell suspension was seeded into a 96-well white plate (#136101, F96 Microwell (Nunc)), and the cells were then cultured in a CO2 incubator (5% CO2, 37° C.). After 24 hours, the medium was aspirated, and thereto was added 100 μL of an assay medium solution including the compound of the present invention, and the cells were cultured in the CO2 incubator (5% CO2, 37° C.). After 24 hours, 11 μL of an assay medium solution including 5×10^−10 M TCDD (#ED-901-B (CIL.)) was added thereto and the cells were cultured in the CO2 incubator (5% CO2, 37° C.). After 24 hours, 50 μL of a reaction substrate (#E253B, Steady-Glo Luciferase substrate (Promega)) for Firefly Luciferase enzyme reaction was added to each well, and after 5 minute-shaking, the light emission intensity was measured with Wallac ARVO 1420sx (PerkinElmer).

CC1(C)C[S+]([O-])c2nc3c(NCCc4ccc(O)c(-c5cccc(F)c5)c4)nc(-c4cncc(F)c4)nc3n21 (stereo not drawn) [Example 21]
Static (vs veh): fold increase of platelet production efficiency (PLT/MK) [1]: 4.7 | IC50 [2]: 0.033 nM

COc1ccccc1-c1cc(CCNc2nc(-c3cncc(F)c3)nc3c2nc2n3C(C)(C)CO2)ccc1O [Example 41]
Static (vs veh): fold increase of platelet production efficiency (PLT/MK) [1]: 7.0 | IC50 [2]: 10 nM

Cc1cncc(-c2nc(NCCc3ccc(O)c(-c4cccc(F)c4)c3)c3nc4n(c3n2)C(C)(C)CO4)c1 [Example 24]
Static (vs veh): fold increase of platelet production efficiency (PLT/MK) [1]: 7.7 | IC50 [2]: 3.9 nM

CC1(C)CSc2nc3c(NCCc4ccc(O)c(-c5cccc(F)c5)c4)nc(-c4ccc5nccn5c4)nc3n21 [Example 53]
Static (vs veh): fold increase of platelet production efficiency (PLT/MK) [1]: 5.3 | IC50 [2]: 1.2 nM

C[C@@H]1CSc2nc3c(NCCc4ccc(O)c(-c5ccccc5)c4)nc(-c4cncc(F)c4)nc3n21 [Example 49]
Static (vs veh): fold increase of platelet production efficiency (PLT/MK) [1]: 5.5 | IC50 [2]: 0.36 nM

CC1(C)COc2nc3c(NCCc4ccc(O)c(-c5ccc(C#N)cc5)c4)nc(-c4cncc(F)c4)nc3n21 [Example 18]
Static (vs veh): fold increase of platelet production efficiency (PLT/MK) [1]: 7.3 | IC50 [2]: 6.9 nM

CC1(C)COc2nc3c(NCCc4ccc(O)c(-c5ccccc5)c4)nc(-c4cncc(C#N)c4)nc3n21 [Example 46, 5-[4-[2-(4-hydroxy-3-phenylphenyl)ethylamino]-8,8-dimethyl-7H-purino[8,9-b][1,3]oxazol-2-yl]pyridine-3-carbonitrile]
Static (vs veh): fold increase of platelet production efficiency (PLT/MK) [1]: 5.0 | IC50 [2]: 9.9 nM

CC1(C)COc2nc3c(NCCc4ccc(O)c(-c5ccccc5)c4)nc(-c4cncc(F)c4)nc3n21 [Example 1, 4-[2-[[2-(5-fluoropyridin-3-yl)-8,8-dimethyl-7H-purino[8,9-b][1,3]oxazol-4-yl]amino]ethyl]J-2-phenylphenol]
Static (vs veh): fold increase of platelet production efficiency (PLT/MK) [1]: 6.5 | IC50 [2]: 4.4 nM

Cc1cncc(-c2cc(CCNc3nc(-c4cncc(F)c4)nc4c3nc3n4C(C)(C)CO3)ccc2O)c1 [Example 72]
Static (vs veh): fold increase of platelet production efficiency (PLT/MK) [1]: 6.8 | IC50 [2]: 9.8 nM

CC1(C)COc2nc3c(NCCc4ccc(O)c(-c5ccccc5F)c4)nc(-c4cncc(F)c4)nc3n21 [Example 2, 2-(2-fluorophenyl)-4-[2-[[2-(5-fluoropyridin-3-yl)-8,8-dimethyl-7H-purino[8,9-b][1,3]oxazol-4-yl]amino]ethyl]phenol]
Static (vs veh): fold increase of platelet production efficiency (PLT/MK) [1]: 5.6 | IC50 [2]: 9.5 nM

Cc1cncc(-c2cc(CCNc3nc(-c4cncc(F)c4)nc4c3nc3n4[C@H](C)CS3)ccc2O)c1 [Example 74]
Static (vs veh): fold increase of platelet production efficiency (PLT/MK) [1]: 3.5 | IC50 [2]: 4.7 nM

CC1(C)COc2nc3c(NCCc4c[nH]c5ccccc45)nc(-c4cccc(F)c4F)nc3n21 [Example 86]
Static (vs veh): fold increase of platelet production efficiency (PLT/MK) [1]: 4.4 | IC50 [2]: 21 nM

CC1(C)COc2nc3c(NCCc4ccc(O)c(-c5cc(F)cc(C#N)c5)c4)nc(-c4cncc(C#N)c4)nc3n21 [Example 69]
Static (vs veh): fold increase of platelet production efficiency (PLT/MK) [1]: 4.7 | IC50 [2]: 13 nM

CC1(C)CSc2nc3c(NCCc4ccc(O)c(-c5ccccc5F)c4)nc(-c4ccc5nccn5c4)nc3n21 [Example 52]
Static (vs veh): fold increase of platelet production efficiency (PLT/MK) [1]: 5.3 | IC50 [2]: 1.8 nM

C[C@@H]1C[S+]([O-])c2nc3c(NCCc4c[nH]c5ccccc45)nc(-c4cncc(F)c4)nc3n21 (stereo partly drawn) [Example 108]
Static (vs veh): fold increase of platelet production efficiency (PLT/MK) [1]: 6.6 | IC50 [2]: 4.1 nM

C[C@@H]1CSc2nc3c(NCCc4ccc(O)c(-c5cccc(F)c5)c4)nc(-c4cncc(F)c4)nc3n21 [Example 29]
Static (vs veh): fold increase of platelet production efficiency (PLT/MK) [1]: 8.4 | IC50 [2]: 0.37 nM

CC1(C)COc2nc3c(NCCc4ccc(O)c(-c5cc(C#N)ccc5F)c4)nc(-c4cncc(C#N)c4)nc3n21 [Example 65]
Static (vs veh): fold increase of platelet production efficiency (PLT/MK) [1]: 3.3 | IC50 [2]: 3.9 nM

CC1(C)COc2nc3c(NCCc4ccc(O)c(-c5cccc(F)c5F)c4)nc(-c4cncc(F)c4)nc3n21 [Example 11]
Static (vs veh): fold increase of platelet production efficiency (PLT/MK) [1]: 8.5 | IC50 [2]: 6.4 nM

CC1(C)COc2nc3c(NCCc4c[nH]c5ccccc45)nc(-c4ccc5ncnn5c4)nc3n21 [Example 111]
Static (vs veh): fold increase of platelet production efficiency (PLT/MK) [1]: 7.0 | IC50 [2]: 40 nM

Cc1cncc(-c2nc(NCCc3ccc(O)c(-c4cccc(F)c4)c3)c3nc4n(c3n2)C(C)(C)CS4)c1 [Example 27]
Static (vs veh): fold increase of platelet production efficiency (PLT/MK) [1]: 6.0 | IC50 [2]: 0.35 nM

CN(C)C(=O)Cc1cccc(-c2cc(CCNc3nc(-c4cncc(F)c4)nc4c3nc3n4C(C)(C)CO3)ccc2O)c1 [Example 79]
Static (vs veh): fold increase of platelet production efficiency (PLT/MK) [1]: 2.9 | IC50 [2]: 6.6 nM

Cc1cncc(-c2nc(NCCc3ccc(O)c(-c4cc(C#N)ccc4F)c3)c3nc4n(c3n2)C(C)(C)CO4)c1 [Example 66]
Static (vs veh): fold increase of platelet production efficiency (PLT/MK) [1]: 4.8 | IC50 [2]: 8.1 nM

CC1(C)COc2nc3c(NCCc4ccc(O)c(-c5cccc(Cl)c5)c4)nc(-c4cncc(F)c4)nc3n21 [Example 6]
Static (vs veh): fold increase of platelet production efficiency (PLT/MK) [1]: 3.7 | IC50 [2]: 10 nM

C[C@@H]1CSc2nc3c(NCCc4ccc(O)c(-c5ccccc5F)c4)nc(-c4cncc(C#N)c4)nc3n21 [Example 39]
Static (vs veh): fold increase of platelet production efficiency (PLT/MK) [1]: 4.3 | IC50 [2]: 1.2 nM
